Where “and” joins values, the source holds several entries; their conditions need not be identical. Equal values may be shown once. ± gives the expanded uncertainty stated by the source.
Columns and labels:
[1] = 101 kPa, Liquid; for viscosity: Capillary tube (Ostwald / Ubbelohde) method; for mass density: Vibrating tube method
[2] = refractive index (Na D-line) (dimensionless); conditions: 101.33 kPa, Liquid, Standard Abbe refractometry
[3] = xn = mol fraction of the nth substance listed; conditions: 101 kPa, Liquid; for viscosity: Capillary tube (Ostwald / Ubbelohde) method; for mass density: Vibrating tube method
[4] = refractive index (Na D-line) (dimensionless); xn = mol fraction of the nth substance listed; conditions: 101 kPa, Liquid, Standard Abbe refractometry

Row | Structure (SMILES) | viscosity ([1]; 293.15 K) [mPa·s] | mass density ([1]; 293.15 K) [kg/m3] | viscosity ([1]; 298.15 K) [mPa·s] | mass density ([1]; 298.15 K) [kg/m3] | viscosity ([1]; 303.15 K) [mPa·s] | mass density ([1]; 303.15 K) | viscosity ([1]; 308.15 K) [mPa·s] | mass density ([1]; 308.15 K) [kg/m3] | viscosity ([1]; 313.15 K) [mPa·s] | mass density ([1]; 313.15 K) [kg/m3] | viscosity ([1]; 318.15 K) [mPa·s] | mass density ([1]; 318.15 K) [kg/m3] | refractive index ([2]; 293.15 K) | refractive index ([2]; 303.15 K) | refractive index ([2]; 313.15 K) | other results
1 | C1C[C@@H]2[C@H]3CC[C@H](C3)[C@@H]2C1 [exo-tetrahydrodicyclopentadiene] | 2.992 ± 0.02 | 935.72 ± 0.15 | 2.71 ± 0.018 | 931.84 ± 0.15 | 2.467 ± 0.017 | 927.94 ± 0.15 kg/m3 and 927.9 ± 0.2 kg/m3 | 2.255 ± 0.016 | 924.02 ± 0.15 | 2.069 ± 0.015 | 920.11 ± 0.15 | 1.907 ± 0.014 | 916.18 ± 0.15 | 1.4874 ± 0.001 | 1.4831 ± 0.001 | 1.4786 ± 0.001 | –
2 | C1C[C@@H]2[C@H]3CC[C@H](C3)[C@@H]2C1 [exo-tetrahydrodicyclopentadiene] + CCC1CCCCC1 | – | – | – | – | – | – | – | – | – | – | – | – | – | – | – | viscosity ([3]; 293.15 K, x1 = 1): 2.992 ± 0.02 mPa·s; mass density ([3]; 293.15 K, x1 = 1): 935.72 ± 0.15 kg/m3; viscosity ([3]; 298.15 K, x1 = 1): 2.71 ± 0.018 mPa·s; mass density ([3]; 298.15 K, x1 = 1): 931.84 ± 0.15 kg/m3; viscosity ([3]; 303.15 K, x1 = 1): 2.467 ± 0.017 mPa·s; mass density ([3]; 303.15 K, x1 = 1): 927.9 ± 0.2 kg/m3; viscosity ([3]; 308.15 K, x1 = 1): 2.255 ± 0.016 mPa·s; mass density ([3]; 308.15 K, x1 = 1): 924.02 ± 0.15 kg/m3; viscosity ([3]; 313.15 K, x1 = 1): 2.069 ± 0.015 mPa·s; mass density ([3]; 313.15 K, x1 = 1): 920.11 ± 0.15 kg/m3; viscosity ([3]; 318.15 K, x1 = 1): 1.907 ± 0.014 mPa·s; mass density ([3]; 318.15 K, x1 = 1): 916.18 ± 0.15 kg/m3; refractive index ([4]; 293.15 K, x1 = 1): 1.4874 ± 0.001; refractive index ([4]; 303.15 K, x1 = 1): 1.4831 ± 0.001; refractive index ([4]; 313.15 K, x1 = 1): 1.4786 ± 0.001
3 | CC1CCCCC1 [methylcyclohexane] | 0.733 ± 0.009 | 769.35 ± 0.15 | 0.687 ± 0.009 | 765.04 ± 0.15 | 0.646 ± 0.009 | 760.71 ± 0.15 kg/m3 | 0.609 ± 0.009 | 756.36 ± 0.15 | 0.576 ± 0.009 | 751.99 ± 0.16 | 0.546 ± 0.009 | 747.6 ± 0.16 | 1.422 ± 0.001 | 1.4172 ± 0.001 | 1.4118 ± 0.001 | –
4 | CCCCC1CCCCC1 [butylcyclohexane] + C1C[C@@H]2[C@H]3CC[C@H](C3)[C@@H]2C1 | – | – | – | – | – | – | – | – | – | – | – | – | – | – | – | viscosity ([3]; 293.15 K, x2 = 0): 1.302 ± 0.011 mPa·s; mass density ([3]; 293.15 K, x2 = 0): 799.47 ± 0.15 kg/m3; viscosity ([3]; 298.15 K, x2 = 0): 1.2 ± 0.011 mPa·s; mass density ([3]; 298.15 K, x2 = 0): 795.71 ± 0.15 kg/m3; viscosity ([3]; 303.15 K, x2 = 0): 1.111 ± 0.01 mPa·s; mass density ([3]; 303.15 K, x2 = 0): 791.96 ± 0.15 kg/m3; viscosity ([3]; 308.15 K, x2 = 0): 1.032 ± 0.01 mPa·s; mass density ([3]; 308.15 K, x2 = 0): 788.2 ± 0.15 kg/m3; viscosity ([3]; 313.15 K, x2 = 0): 0.962 ± 0.01 mPa·s; mass density ([3]; 313.15 K, x2 = 0): 784.43 ± 0.15 kg/m3; viscosity ([3]; 318.15 K, x2 = 0): 0.899 ± 0.01 mPa·s; mass density ([3]; 318.15 K, x2 = 0): 780.65 ± 0.15 kg/m3; refractive index ([4]; 293.15 K, x2 = 0): 1.4399 ± 0.001; refractive index ([4]; 303.15 K, x2 = 0): 1.4354 ± 0.001; refractive index ([4]; 313.15 K, x2 = 0): 1.4311 ± 0.001
5 | C1CCCCC1 [cyclohexane] | 0.977 ± 0.01 | 778.51 ± 0.15 | 0.898 ± 0.01 | 773.84 ± 0.15 | 0.828 ± 0.009 | 769.11 ± 0.15 kg/m3 | 0.766 ± 0.009 | 764.36 ± 0.15 | 0.712 ± 0.009 | 759.57 ± 0.15 | 0.664 ± 0.009 | – | 1.4256 ± 0.001 | 1.4205 ± 0.001 | 1.4143 ± 0.001 | –
6 | C1C[C@@H]2[C@H]3CC[C@H](C3)[C@@H]2C1 [exo-tetrahydrodicyclopentadiene] + CC1CCC(C)C(C)C1 | – | – | – | – | – | – | – | – | – | – | – | – | – | – | – | viscosity ([3]; 293.15 K, x1 = 1): 2.992 ± 0.02 mPa·s; mass density ([3]; 293.15 K, x1 = 1): 935.72 ± 0.15 kg/m3; viscosity ([3]; 298.15 K, x1 = 1): 2.71 ± 0.018 mPa·s; mass density ([3]; 298.15 K, x1 = 1): 931.84 ± 0.15 kg/m3; viscosity ([3]; 303.15 K, x1 = 1): 2.467 ± 0.017 mPa·s; mass density ([3]; 303.15 K, x1 = 1): 927.94 ± 0.15 kg/m3; viscosity ([3]; 308.15 K, x1 = 1): 2.255 ± 0.016 mPa·s; mass density ([3]; 308.15 K, x1 = 1): 924.02 ± 0.15 kg/m3; viscosity ([3]; 313.15 K, x1 = 1): 2.069 ± 0.015 mPa·s; mass density ([3]; 313.15 K, x1 = 1): 920.11 ± 0.15 kg/m3; viscosity ([3]; 318.15 K, x1 = 1): 1.907 ± 0.014 mPa·s; mass density ([3]; 318.15 K, x1 = 1): 916.18 ± 0.15 kg/m3; refractive index ([4]; 293.15 K, x1 = 1): 1.4874 ± 0.001; refractive index ([4]; 303.15 K, x1 = 1): 1.4831 ± 0.001; refractive index ([4]; 313.15 K, x1 = 1): 1.4786 ± 0.001
7 | CCC1CCCCC1 [ethylcyclohexane] | 0.845 ± 0.009 | 788.02 ± 0.15 | 0.791 ± 0.009 | 784.01 ± 0.15 | 0.743 ± 0.009 | 779.98 ± 0.15 kg/m3 | 0.7 ± 0.009 | 775.93 ± 0.15 | 0.661 ± 0.009 | 771.86 ± 0.15 | 0.626 ± 0.009 | 767.78 ± 0.15 | 1.4319 ± 0.001 | 1.4276 ± 0.001 | 1.4225 ± 0.001 | –
8 | CC1CCCCC1 [methylcyclohexane] + C1C[C@@H]2[C@H]3CC[C@H](C3)[C@@H]2C1 | – | – | – | – | – | – | – | – | – | – | – | – | – | – | – | viscosity ([3]; 293.15 K, x2 = 0): 0.733 ± 0.009 mPa·s; mass density ([3]; 293.15 K, x2 = 0): 769.35 ± 0.15 kg/m3; viscosity ([3]; 298.15 K, x2 = 0): 0.687 ± 0.009 mPa·s; mass density ([3]; 298.15 K, x2 = 0): 765.04 ± 0.15 kg/m3; viscosity ([3]; 303.15 K, x2 = 0): 0.646 ± 0.009 mPa·s; mass density ([3]; 303.15 K, x2 = 0): 760.71 ± 0.15 kg/m3; viscosity ([3]; 308.15 K, x2 = 0): 0.609 ± 0.009 mPa·s; mass density ([3]; 308.15 K, x2 = 0): 756.36 ± 0.15 kg/m3; viscosity ([3]; 313.15 K, x2 = 0): 0.576 ± 0.009 mPa·s; mass density ([3]; 313.15 K, x2 = 0): 751.99 ± 0.16 kg/m3; viscosity ([3]; 318.15 K, x2 = 0): 0.546 ± 0.009 mPa·s; mass density ([3]; 318.15 K, x2 = 0): 747.6 ± 0.16 kg/m3; refractive index ([4]; 293.15 K, x2 = 0): 1.422 ± 0.001; refractive index ([4]; 303.15 K, x2 = 0): 1.4172 ± 0.001; refractive index ([4]; 313.15 K, x2 = 0): 1.4118 ± 0.001
9 | CC1CCC(C)C(C)C1 (stereo not drawn) [1,2,4-trimethylcyclohexane] | 0.886 ± 0.012 | 790.8 ± 0.39 | 0.827 ± 0.011 | 786.92 ± 0.39 | 0.774 ± 0.011 | 783.03 ± 0.39 kg/m3 | 0.727 ± 0.011 | 779.13 ± 0.39 | 0.686 ± 0.01 | 775.23 ± 0.39 | 0.648 ± 0.01 | 771.32 ± 0.39 | 1.4331 ± 0.0011 | 1.4285 ± 0.0011 | 1.424 ± 0.0011 | –
10 | C1CCCCC1 [cyclohexane] + C1C[C@@H]2[C@H]3CC[C@H](C3)[C@@H]2C1 | – | – | – | – | – | – | – | – | – | – | – | – | – | – | – | viscosity ([3]; 293.15 K, x2 = 0): 0.977 ± 0.01 mPa·s; mass density ([3]; 293.15 K, x2 = 0): 778.51 ± 0.15 kg/m3; viscosity ([3]; 298.15 K, x2 = 0): 0.898 ± 0.01 mPa·s; mass density ([3]; 298.15 K, x2 = 0): 773.84 ± 0.15 kg/m3; viscosity ([3]; 303.15 K, x2 = 0): 0.828 ± 0.009 mPa·s; mass density ([3]; 303.15 K, x2 = 0): 769.11 ± 0.15 kg/m3; viscosity ([3]; 308.15 K, x2 = 0): 0.766 ± 0.009 mPa·s; mass density ([3]; 308.15 K, x2 = 0): 764.36 ± 0.15 kg/m3; viscosity ([3]; 313.15 K, x2 = 0): 0.712 ± 0.009 mPa·s; mass density ([3]; 313.15 K, x2 = 0): 759.57 ± 0.15 kg/m3; viscosity ([3]; 318.15 K, x2 = 0): 0.664 ± 0.009 mPa·s; refractive index ([4]; 293.15 K, x2 = 0): 1.4256 ± 0.001; refractive index ([4]; 303.15 K, x2 = 0): 1.4205 ± 0.001; refractive index ([4]; 313.15 K, x2 = 0): 1.4143 ± 0.001
11 | CCCCC1CCCCC1 [butylcyclohexane] | 1.302 ± 0.011 | 799.47 ± 0.15 | 1.2 ± 0.011 | 795.71 ± 0.15 | 1.111 ± 0.01 | 791.96 ± 0.15 kg/m3 | 1.032 ± 0.01 | 788.2 ± 0.15 | 0.962 ± 0.01 | 784.43 ± 0.15 | 0.899 ± 0.01 | 780.65 ± 0.15 | 1.4399 ± 0.001 | 1.4354 ± 0.001 | 1.4311 ± 0.001 | –

Source: the NIST ThermoML archive (doi:10.1021/je400529k)
